We go through 13 compounds from PMC12186753 (ACS pharmacology & translational science, 2025).

Each structure is given as a SMILES string. Several values for one entry are separate records, joined by “and”; a condition that tells them apart may be missing. Equal values may be shown once. Read-outs that look alike come from different tables or passages of the source.

One assay deals with human tPA (Homo sapiens, UniProt P00750). The experiment in a line: tPA inhibition assay with chromogenic substrate S-2288 (Dixon plot, Cornish-Bowden plot). It is filed as biochemical. Particulars: for Mode of inhibition (Cornish-Bowden S/Vo vs I plot): tPA; for Ki: S-2288, 75 nM human tPA, PBS pH 7.4, Dixon plot.
Another assay has as its target human thrombin (Homo sapiens, UniProt P00734). The experiment in a line: Thrombin inhibition assay with fluorogenic Thrombin Substrate III (Dixon plot, Cornish-Bowden plot). As to conditions: for Mode of inhibition (Cornish-Bowden S/Vo vs I plot): thrombin; for Ki: TSIII, 0.25 U/mL human thrombin, PBS pH 7.4 at 10% DMSO, Dixon plot. It is filed as biochemical.
For assay [1], the target named is T1, plasmin (Homo sapiens, UniProt P00747). Particulars: read-out: Plasmin Ki; S-2251, 42.5 nM human plasmin, Dixon plot; previously determined; cited from earlier work.
For assay [2], the target named is T1, plasmin. As to the kind of experiment: Annular fibrin clot assay (FITC-tagged fibrin clot lysis by plasmin). Particulars: for IC50/Ki: annular clot IC50 over S-2251 plasmin Ki. It is filed as biochemical.
Assay [3] has as its target T1, plasmin. As to the kind of experiment: Plasmin inhibition assay with chromogenic substrate S-2251 (Dixon plot, Cornish-Bowden plot). It is filed as biochemical. Particulars: for Mode of inhibition (Cornish-Bowden S/Vo vs I plot) / rpAMB (KiAMB/Kihetero) / rpTXA (KiTXA/Kihetero): plasmin; for Ki: read-out: Plasmin Ki, S-2251, 42.5 nM human plasmin, PBS pH 7.4, Dixon plot.

The target in assay [4] is plasmin. As to conditions: read-out: Plasmin active site Ki reported in the literature; cited from earlier work.
The target in assay [5] is LBS on kringle domains of plasmin. Particulars: cited from earlier work.

human tPA, sequence (P00750 36-562): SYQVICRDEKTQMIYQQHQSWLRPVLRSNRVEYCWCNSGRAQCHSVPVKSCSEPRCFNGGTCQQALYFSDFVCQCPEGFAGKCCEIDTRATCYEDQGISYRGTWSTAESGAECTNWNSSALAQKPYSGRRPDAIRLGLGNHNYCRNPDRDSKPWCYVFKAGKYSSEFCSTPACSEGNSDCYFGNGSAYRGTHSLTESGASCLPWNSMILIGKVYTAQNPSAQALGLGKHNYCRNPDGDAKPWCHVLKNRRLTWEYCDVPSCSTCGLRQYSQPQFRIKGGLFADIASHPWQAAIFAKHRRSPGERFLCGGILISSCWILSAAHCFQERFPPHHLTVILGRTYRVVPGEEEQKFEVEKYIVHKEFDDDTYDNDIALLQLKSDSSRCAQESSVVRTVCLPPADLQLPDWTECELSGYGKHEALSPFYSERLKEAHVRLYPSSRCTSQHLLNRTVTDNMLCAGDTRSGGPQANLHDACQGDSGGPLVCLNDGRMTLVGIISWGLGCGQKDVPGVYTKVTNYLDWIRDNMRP
T1 sequence (P00747 97-580 limits assumed): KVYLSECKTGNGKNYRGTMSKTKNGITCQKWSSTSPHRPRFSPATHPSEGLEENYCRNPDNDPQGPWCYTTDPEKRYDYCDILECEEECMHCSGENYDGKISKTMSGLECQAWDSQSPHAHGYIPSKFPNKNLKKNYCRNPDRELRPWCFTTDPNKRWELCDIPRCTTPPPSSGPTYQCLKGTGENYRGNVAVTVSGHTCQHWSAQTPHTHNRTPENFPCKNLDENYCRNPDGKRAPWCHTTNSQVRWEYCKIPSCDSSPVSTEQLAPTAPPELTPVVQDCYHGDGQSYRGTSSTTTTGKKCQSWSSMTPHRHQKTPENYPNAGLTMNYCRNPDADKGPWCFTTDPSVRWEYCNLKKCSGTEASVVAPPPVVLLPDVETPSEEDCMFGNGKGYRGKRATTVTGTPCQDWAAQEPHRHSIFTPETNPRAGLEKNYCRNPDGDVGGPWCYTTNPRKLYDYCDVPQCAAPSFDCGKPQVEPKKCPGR
T1 sequence (P00747 581-810 limits assumed): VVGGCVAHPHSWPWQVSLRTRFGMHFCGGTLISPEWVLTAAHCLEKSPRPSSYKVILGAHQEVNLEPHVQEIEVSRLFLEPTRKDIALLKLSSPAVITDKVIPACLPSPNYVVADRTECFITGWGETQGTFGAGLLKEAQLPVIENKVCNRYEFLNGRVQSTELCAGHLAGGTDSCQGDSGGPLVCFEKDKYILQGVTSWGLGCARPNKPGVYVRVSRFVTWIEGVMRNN

One may read the Ki as the equilibrium dissociation constant of an inhibitor or competing ligand from its target. One may read the IC50 as the concentration that inhibits the measured activity by half. Consider `N=C(N)c1ccc(N)cc1` [4-amino benzamidine, reference compound], for which the “Mode of inhibition (Cornish-Bowden S/Vo vs I plot)” value on human tPA and on human thrombin was “competitive inhibitor” throughout. The Ki on human tPA (tPA Ki) is 148 µM; at plasmin [1] it was 51 ± 2.4 µM. Moreover, at plasmin [2], half-maximal inhibition (IC50) was put at 451 ± 70 µM.
As to `N=C(N)c1ccc(CN)cc1` [4-aminomethyl benzamidine, reference compound], the “Mode of inhibition (Cornish-Bowden S/Vo vs I plot)” value on human tPA and at human thrombin was “competitive inhibitor” each time. Besides, the results for the Ki at human tPA (tPA Ki), at human thrombin (Thrombin Ki) and on plasmin [1] were 5210 µM, 344 µM and 1070 µM, respectively. This compound displayed an IC50 on plasmin [2] of 32700 µM. This compound also returned an IC50/Ki against plasmin [2] of 29.0.
As to `N=C(N)c1ccc(C(=O)O)cc1` [4-carboxy benzamidine, reference compound], the Ki on human thrombin (Thrombin Ki) is 151 µM; at plasmin [1], 292 ± 6.5 µM. Further, the “Mode of inhibition (Cornish-Bowden S/Vo vs I plot)” value on human thrombin was “competitive inhibitor”.
With `N=C(N)c1ccccc1` [Benzamidine, reference compound], the “Mode of inhibition (Cornish-Bowden S/Vo vs I plot)” value on human tPA and at human thrombin was “competitive inhibitor” in each case.
With `NCCCCCC(=O)O` [EACA, ɛ-aminocaproic acid, reference compound], the “Mode of inhibition (Cornish-Bowden S/Vo vs I plot)” value is “weak competitive inhibitor” at human tPA, “competitive inhibitor” on human thrombin and “weak competitive inhibitor” at plasmin [3]. Besides, on human thrombin (Thrombin Ki), the affinity, expressed as Ki, was 65200 µM.
For `N=C(N)c1ccc(CNC(=O)CCOCCOCCOCCOCCNC(=O)CCCCCN)cc1` [EACA-dPEG4-AMB], the Ki was 501 µM on human tPA (read-out: tPA Ki); 4.05 µM and 4 µM at human thrombin (read-out: Thrombin Ki); 233 ± 5 µM at plasmin [3]. For the same compound, the “Mode of inhibition (Cornish-Bowden S/Vo vs I plot)” value on human tPA, on human thrombin and at plasmin [3] was “competitive inhibitor” in each case. At human thrombin (EACA-dPEG4-AMB vs TXA-dPEG4-AMB, monovalent EACA vs monovalent TXA), the “fold stronger inhibitor of thrombin than the TXA counterpart” value is on record as 3 fold.
For the compound `N=C(N)c1ccc(OCCCCCOc2ccc(C(=N)N)cc2)cc1` [Pentamidine, reference compound], the “Mode of inhibition (Cornish-Bowden S/Vo vs I plot)” value at human tPA and on human thrombin was “competitive inhibitor” each time. The Ki on human tPA (tPA Ki) is 42.7 µM and 43 µM; on human thrombin (Thrombin Ki) it was 4.48 µM and 4.5 µM. This compound showed an IC50 against plasmin [2] of 3.2 ± 1 µM. This compound registered an IC50/Ki at plasmin [2] of 1.5.
Turning to `NC[C@H]1CC[C@H](C(=O)O)CC1` [TXA, Tranexamic acid], the Ki is roughly 40000 µM at plasmin [4]; 1.1 µM in assay [5] (read-out: Ki for LBS on the K1 domain of plasmin, K1 domain); roughly 750 µM in assay [5] (read-out: Ki for the other plasmin kringle domain LBS, other kringle domains). Besides, the “Mode of inhibition (Cornish-Bowden S/Vo vs I plot)” value at plasmin [3] is given as “weak competitive inhibitor”.
Consider `N=C(N)c1ccc(CNC(=O)CCOCCOCCOCCOCCNC(=O)[C@H]2CC[C@H](CN)CC2)cc1` [TXA-dPEG4-AMB], for which the Ki at human tPA (read-out: tPA Ki) is 230 µM and 231 µM; at human thrombin (read-out: Thrombin Ki), 14.5 µM and 14 µM; on plasmin [3] it was 42 ± 12 µM. The “Mode of inhibition (Cornish-Bowden S/Vo vs I plot)” value on human tPA, at human thrombin and at plasmin [3] was “competitive inhibitor” throughout. Moreover, the “rpAMB (KiAMB/Kihetero)” value on plasmin [3] is given as 26. The “rpTXA (KiTXA/Kihetero)” value at plasmin [3] is listed as 509.
For `N=C(N)c1ccc(CNC(=O)CCOCCOCCOCCOCCOCCOCCOCCOCCNC(=O)[C@H]2CC[C@H](CN)CC2)cc1` [TXA-dPEG8-AMB], the Ki on human tPA (read-out: tPA Ki) is 292 ± 0.4 µM; on human thrombin (read-out: Thrombin Ki), 32.4 µM and 32 µM; at plasmin [3], 99.4 µM and 99 µM. The “Mode of inhibition (Cornish-Bowden S/Vo vs I plot)” value was “not to be a solely competitive inhibitor” on human tPA, “competitive inhibitor” on human thrombin and “competitive inhibitor” on plasmin [3]. Also, on plasmin [3], the “rpAMB (KiAMB/Kihetero)” value came out at 11. The “rpTXA (KiTXA/Kihetero)” value on plasmin [3] came to 216.
Consider `N=C(N)c1ccc(CNC(=O)CCOCCOCCOCCOCCOCCOCCOCCOCCOCCOCCOCCOCCNC(=O)[C@H]2CC[C@H](CN)CC2)cc1` [TXA-dPEG12-AMB], for which the Ki on human tPA (read-out: tPA Ki) is 641 µM; on human thrombin (read-out: Thrombin Ki), 45.7 µM and 46 µM; on plasmin [3], 207 ± 4.1 µM. Besides, the “Mode of inhibition (Cornish-Bowden S/Vo vs I plot)” value on human tPA, on human thrombin and on plasmin [3] was “competitive inhibitor” in each case. Further, the “rpAMB (KiAMB/Kihetero)” value on plasmin [3] amounted to 5. Further, the “rpTXA (KiTXA/Kihetero)” value at plasmin [3] was determined as 103.
Turning to `N=C(N)c1ccc(CNC(=O)CCOCCOCCOCCOCCOCCOCCOCCOCCOCCOCCOCCOCCOCCOCCOCCOCCOCCOCCOCCOCCOCCOCCOCCOCCOCCOCCOCCOCCOCCOCCOCCOCCOCCOCCOCCOCCNC(=O)[C@H]2CC[C@H](CN)CC2)cc1` [TXA-dPEG36-AMB], the inhibition constant (Ki) on human tPA (read-out: tPA Ki) is 136 ± 0.7 µM; at human thrombin (read-out: Thrombin Ki), 77.5 µM and 78 µM; on plasmin [3] it was 75.4 µM and 75 µM. Moreover, the entries for the “Mode of inhibition (Cornish-Bowden S/Vo vs I plot)” value on human tPA, at human thrombin and on plasmin [3] were “not to be a solely competitive inhibitor”, “competitive inhibitor” and “competitive inhibitor”, respectively. The “rpAMB (KiAMB/Kihetero)” value at plasmin [3] worked out at 14. For the same compound, at plasmin [3], the “rpTXA (KiTXA/Kihetero)” value is 285.
In the case of `N=C(N)c1ccc(CNC(=O)CN(CC(=O)NCc2ccc(C(=N)N)cc2)CC(=O)NCc2ccc(C(=N)N)cc2)cc1` [Tri-AMB], the Ki at human tPA (read-out: tPA Ki) is 164 ± 17 µM; at human thrombin (read-out: Thrombin Ki), 10.7 µM and 11 µM. In addition, the “Mode of inhibition (Cornish-Bowden S/Vo vs I plot)” value on human tPA and on human thrombin was “competitive inhibitor” throughout. In addition, the IC50 at plasmin [2] (read-out: Annular IC50, 850 nM plasmin, annular fibrin clot, from Vmax) worked out at 7.7 ± 3 µM.
